In ChEMBL document CHEMBL4396953, “Synthesis and highly potent anti-inflammatory activity of licofelone- and ketorolac-based 1-arylpyrrolizin-3-ones” (2019):

These molecules were tested on Mus musculus (assay: Antiinflammatory activity in CD1 mouse model of TPA-induced ear edema assessed as reduction in ear edema formation administered topically after TPA challenge for 30 mins and measured after 6 hrs post administration).
Type: functional

| SMILES | Activity | ED50 [mg] |
| --- | --- | --- |
| COc1ccc2c(c1)c(CC(=O)O)c(C)n2C(=O)c1ccc(Cl)cc1 [INDOMETHACIN] | Dose-dependent effect | 1.07 to 1.29 |
| COC(=O)C1=C(c2ccc([N+](=O)[O-])cc2)c2cccn2C1=O | Dose-dependent effect | 1.86 |
| COC(=O)C1=C(c2ccc(Br)cc2)c2cccn2C1=O | Dose-dependent effect | 3.23 |

What follows are molecules tested on Mus musculus (assay: Antiinflammatory activity in CD1 mouse model of TPA-induced ear edema assessed as inhibition of ear edema at 2 mg/ear administered topically after TPA challenge for 30 mins and measured after 6 hrs post administration relative to control).
Type: functional

| SMILES | inhibition (INH) |
| --- | --- |
| COc1ccc2c(c1)c(CC(=O)O)c(C)n2C(=O)c1ccc(Cl)cc1 [INDOMETHACIN] | 41.47 - 61.1% |
| COC(=O)/C(=C\N(C)C)n1cccc1C=O | 21.37% |
| COC(=O)C1=C(c2ccc([N+](=O)[O-])cc2)c2cccn2C1=O | 53.43% |
| COC(=O)Cn1cccc1C=O | 33.73% |
| COC(=O)C1=C(c2ccc(Br)cc2)c2cccn2C1=O | 40.88% |

The molecules below were run on Mus musculus (assay: Antiinflammatory activity in CD1 mouse model of TPA-induced ear edema assessed as ear edema formation at 0.5 mg/ear administered topically after TPA challenge for 30 mins and measured after 6 hrs post administration (reference value: 17.61 to 19.82 mg)).
Type: functional

| SMILES | Activity [mg] |
| --- | --- |
| COc1ccc2c(c1)c(CC(=O)O)c(C)n2C(=O)c1ccc(Cl)cc1 [INDOMETHACIN] | 1.22 to 11.51 |
| COC(=O)C1=C(c2ccc([N+](=O)[O-])cc2)c2cccn2C1=O | 18.13 |
| COC(=O)C1=C(c2ccc(Br)cc2)c2cccn2C1=O | 18.14 |

Each molecule was assayed on Mus musculus (assay: Antiinflammatory activity in CD1 mouse model of TPA-induced ear edema assessed as ear edema formation at 2 mg/ear administered topically after TPA challenge for 30 mins and measured after 6 hrs post administration (reference value: 17.61 to 19.82 mg)).
Type: functional

| SMILES | Activity [mg] |
| --- | --- |
| COc1ccc2c(c1)c(CC(=O)O)c(C)n2C(=O)c1ccc(Cl)cc1 [INDOMETHACIN] | 6.99 to 10.49 |
| COC(=O)/C(=C\N(C)C)n1cccc1C=O | 14.09 |
| COC(=O)C1=C(c2ccc([N+](=O)[O-])cc2)c2cccn2C1=O | 9.2 |
| COC(=O)Cn1cccc1C=O | 11.87 |
| COC(=O)C1=C(c2ccc(Br)cc2)c2cccn2C1=O | 11.72 |

Each molecule was assayed on Mus musculus (assay: Antiinflammatory activity in CD1 mouse model of TPA-induced ear edema assessed as inhibition of ear edema at 1 mg/ear administered topically after TPA challenge for 30 mins and measured after 6 hrs post administration relative to control).
Type: functional

| SMILES | inhibition (INH) |
| --- | --- |
| COc1ccc2c(c1)c(CC(=O)O)c(C)n2C(=O)c1ccc(Cl)cc1 [INDOMETHACIN] | 41.97 - 52.37% |
| COC(=O)C1=C(c2ccc([N+](=O)[O-])cc2)c2cccn2C1=O | 24.1% |
| COC(=O)C1=C(c2ccc(Br)cc2)c2cccn2C1=O | 29.73% |

The molecules below were run on Mus musculus (assay: Antiinflammatory activity in CD1 mouse model of TPA-induced ear edema assessed as inhibition of ear edema at 0.5 mg/ear administered topically after TPA challenge for 30 mins and measured after 6 hrs post administration relative to control).
Type: functional

| SMILES | inhibition (INH) |
| --- | --- |
| COc1ccc2c(c1)c(CC(=O)O)c(C)n2C(=O)c1ccc(Cl)cc1 [INDOMETHACIN] | 32.12 - 41.44% |
| COC(=O)C1=C(c2ccc([N+](=O)[O-])cc2)c2cccn2C1=O | 8.52% |
| COC(=O)C1=C(c2ccc(Br)cc2)c2cccn2C1=O | 8.46% |

These molecules were tested on Mus musculus (assay: Antiinflammatory activity in CD1 mouse model of TPA-induced ear edema assessed as ear edema formation at 1 mg/ear administered topically after TPA challenge for 30 mins and measured after 6 hrs post administration (reference value: 17.61 to 19.82 mg)).
Type: functional

| SMILES | Activity [mg] |
| --- | --- |
| COc1ccc2c(c1)c(CC(=O)O)c(C)n2C(=O)c1ccc(Cl)cc1 [INDOMETHACIN] | 9.01 to 9.44 |
| COC(=O)C1=C(c2ccc([N+](=O)[O-])cc2)c2cccn2C1=O | 15.04 |
| COC(=O)C1=C(c2ccc(Br)cc2)c2cccn2C1=O | 13.93 |

What follows are molecules tested on J774.A1 (assay: Antiinflammatory activity in mouse J774A.1 cells LPS-induced NO production at 25 ug/ml incubated for 2 hrs followed by LPS-stimulation measured after 24 hrs by Griess assay relative to control).
Type: functional

| SMILES | Activity [%] |
| --- | --- |
| COc1ccc2c(c1)c(CC(=O)O)c(C)n2C(=O)c1ccc(Cl)cc1 [INDOMETHACIN] | 64.63 |
